Reference: article PMC6627698, “Redesigning Arenicin-1, an Antimicrobial Peptide from the Marine Polychaeta Arenicola marina, by Strand Rearrangement or Branching, Substitution of Specific Residues, and Backbone Linearization or Cyclization” (Marine Drugs, 2019)
Residues, ends and D or L forms follow the SMILES beside them. *: point of attachment. Cam = NC(=O)C*

Experiments:
E. coli ATCC 25922 = assay type: cell-based, Escherichia coli; conditions: ATCC 25922, 18 h
Description: (§1) E. coli ML35p, Listeria monocytogenes EGD, methicillin-resistant Staphylococcus aureus (MRSA) ATCC 33591 were kindly provided by Prof. Robert Lehrer (University of California, Los Angeles, CA, USA); E. coli ATCC 25922, E. coli M15, Pseudomonas aeruginosa ATCC 27853, S. aureus ATCC 25923 were provided by Dr. Elena Ermolenko (Institute of Experimental Medicine, St-Petersburg, Russia); drug-resistant clinical isolates were provided by Prof. Gennadiy Afinogenov (Saint Petersburg State University, Russia); S. aureus 710A has been described previously. The following clinical isolates of bacteria were used: P.s aeruginosa resistant to aztreonam, ceftazidime, cefotaxime (obtained from the urine of a patient with cystitis), Acinetobacter baumannii resistant to meropenem (from an infected wound); Staphylococcus intermedius (from an infected wound caused by a dog bite) resistant to ciprofloxacin, cefuroxime, clindamycin, erythromycin, rifampin, gentamicin, benzylpenicillin, oxacillin.
(§2) This assay was applied to determine the MIC, according to the guidelines of the Clinical and Laboratory Standards Institute, using Mueller Hinton (MH) Broth. We prepared 2x stocks of peptides and serially diluted them in sterile PBS instead of Mueller Hinton Broth, so that the treatment of the bacteria with the peptides was carried out in a medium containing 50% of MH and 50% of PBS, as described. The overnight cultures of each strain were transferred to fresh MH media and further incubated to obtain a mid-logarithmic-growth-phase culture of bacteria. The absorbance of each bacterial suspension was measured at 620 nm, and bacteria were then diluted to approximately 2 × 10^5 CFU/mL. Then, 50 µL of the suspensions were mixed with 50 µL of the peptide dilutions in the wells of a microtiter plate (pre-treated for 1 h at 37 °C with 0.2% bovine serum albumin (BSA) in water, sterilized by filtration, to diminish the non-specific binding of the peptides to the plastic surfaces).

E. coli M15 = assay type: cell-based, Escherichia coli; conditions: M15, 18 h
Description: as §1, §2

Escherichia coli ML35p = assay type: cell-based; conditions: broth microdilution, 50% Mueller Hinton broth / 50% PBS, 18 h at 37 °C, median of 3–5 experiments in triplicates
Description: as §1, §2

[1] = system: Listeria monocytogenes EGD; assay type: cell-based; conditions: 18 h
Description: as §1, §2

[2] = system: Pseudomonas aeruginosa ATCC 27853; assay type: cell-based; conditions: ATCC 27853, 18 h
Description: as §1, §2

[3] = system: Staphylococcus aureus 710A; assay type: cell-based; conditions: 18 h
Description: as §1, §2

MRSA ATCC 33591 = assay type: cell-based, Staphylococcus aureus; conditions: ATCC 33591, 18 h
Description: as §1, §2

S. aureus ATCC 25923 = assay type: cell-based, Staphylococcus aureus; conditions: ATCC 25923, 18 h
Description: as §1, §2

S. aureus c.i. = assay type: cell-based, Staphylococcus aureus; conditions: 18 h
Description: as §1, §2

P. aeruginosa c.i. = assay type: cell-based, Pseudomonas aeruginosa; conditions: 18 h
Description: as §1, §2

[4] = system: Acinetobacter baumanii c.i.; assay type: cell-based, Acinetobacter baumannii; conditions: 18 h
Description: as §1, §2

[5] = system: Staphylococcus intermidius; assay type: cell-based, Staphylococcus intermedius; conditions: 18 h
Description: as §1, §2

[6] = system: set of Gram-negative and Gram-positive bacteria, including drug-resistant clinical isolates; assay type: cell-based; conditions: 12 strains; median MICs used; MIC > 16 µM taken as 32 µM
Experimental: To obtain a global assessment of the effect on antimicrobial activity, the geometric mean of the MIC (G-MIC) was calculated, and from this, the overall improvement or impoverishment with respect to arenicin-1. In general, inverting the symmetry or decreasing the charge had detrimental effects.
The overall activity against a set of tested bacterial strains was determined by way of the commonly used geometric mean of measured MIC values. […] At the same time, the geometric mean can still discriminate antimicrobial agents showing minor variations in activity; in other words, it has a better “resolution” than the median MIC (MIC50). Some mathematical basics for choosing the geometric mean for antimicrobial activity comparison are further discussed in the Supplementary Chapter S3.

[7] = system: human erythroleukemia K-562 cells; assay type: cell-based; conditions: 24 h
Experimental: The standard MTT ((3-(4,5-Dimethylthiazol-2-yl)-2,5-diphenyltetrazolium bromide) test was used for the examination of the cytotoxic activity of AMPs towards human erithroleukemia cells K-562. The cells were purchased from Biolot (Saint Petersburg, Russia) and were grown in RPMI 1640 medium (Biolot, Saint Petersburg, Russia) supplemented with glutamine and 10% FCS. Before the experiment, the culturing medium was replaced with serum-free RPMI 1640. Serial dilutions of the peptides in RPMI were plated in sterile 96-well microplates, and the target cells were dispensed to the microplates (10^5 cells/well in RPMI 1640). The plates were incubated for 24 h at 37 °C under 5% CO2. Cell-free media and cells incubated without peptides served as controls. Four hours before the incubation ended, MTT in PBS (5 mg/mL) was added to each well. After the incubation was stopped by adding isopropanol/ 0.04 M HCl, the optical density was measured at 540 nm, subtracting the background absorbance at 690 nm. Toxicity was determined by nonlinear regression analysis of the corresponding dose–response curves using the Sigma Plot 11 program to calculate the IC50 values (the concentration of the test substance that reduced the OD540 capacity by 50%).

Row | SMILES | Minimal Inhibitory Concentrations (MIC) (E. coli ATCC 25922) | Minimal Inhibitory Concentrations (MIC) (E. coli M15) | Minimal Inhibitory Concentrations (MIC) (Escherichia coli ML35p) | Minimal Inhibitory Concentrations (MIC) [1] | Minimal Inhibitory Concentrations (MIC) [2] | Minimal Inhibitory Concentrations (MIC) [3] | Minimal Inhibitory Concentrations (MIC) (MRSA ATCC 33591) | Minimal Inhibitory Concentrations (MIC) (S. aureus ATCC 25923) | Minimal Inhibitory Concentrations (MIC) (S. aureus c.i.) | Minimal Inhibitory Concentrations (MIC) (P. aeruginosa c.i.) | Minimal Inhibitory Concentrations (MIC) [4] | Minimal Inhibitory Concentrations (MIC) [5] | G-MIC (geometric mean of all determined MICs) [6] | IC50 [7]
1 | CC(C)C[C@@H]1NC(=O)[C@H](C(C)C)NC(=O)CNC(=O)[C@H](CCCNC(=N)N)NC(=O)[C@H](C(C)C)NC(=O)[C@H](CCCNC(=N)N)NC(=O)[C@H](C(C)C)NC(=O)[C@H](Cc2ccc(O)cc2)NC(=O)[C@H](C)NC(=O)[C@H](Cc2ccc(O)cc2)NC(=O)[C@H](C(C)C)NC(=O)[C@@H](NC(=O)[C@H](Cc2c[nH]c3ccccc23)NC(=O)[C@@H](N)CCCNC(=N)N)CSSC[C@@H](C(=O)N[C@@H](Cc2c[nH]c3ccccc23)C(=O)O)NC(=O)[C@H](CCCNC(=N)N)NC(=O)[C@H](CCCNC(=N)N)NC(=O)[C@H](Cc2ccc(O)cc2)NC(=O)[C@H](CCCNC(=N)N)NC(=O)[C@H](C(C)C)NC1=O [AR, Arenicin-1] (HELM PEPTIDE1{R.W.C.V.Y.A.Y.V.R.V.R.G.V.L.V.R.Y.R.R.C.W}$PEPTIDE1,PEPTIDE1,3:R3-20:R3$$$V2.0) | 2 µM | 2 µM | 1 to 2 µM | 1 to 2 µM | 2 µM | 2 µM | 4 µM | 2 µM | 4 µM | 4 µM | 4 µM | 8 µM | 2.7 µM | 17.9 µM
2 | CC(C)C[C@@H]1NC(=O)[C@H](C(C)C)NC(=O)CNC(=O)[C@H](CCCNC(=N)N)NC(=O)[C@H](C(C)C)NC(=O)[C@H](CCCNC(=N)N)NC(=O)[C@H](C(C)C)NC(=O)[C@H](Cc2ccc(O)cc2)NC(=O)[C@H](C)NC(=O)[C@H](Cc2ccc(O)cc2)NC(=O)[C@H](C(C)C)NC(=O)[C@@H](NC(=O)[C@H](Cc2ccccc2)NC(=O)[C@@H](N)CCCNC(=N)N)CSSC[C@@H](C(=O)N[C@@H](Cc2ccccc2)C(=O)O)NC(=O)[C@H](CCCNC(=N)N)NC(=O)[C@H](CCCNC(=N)N)NC(=O)[C@H](Cc2ccc(O)cc2)NC(=O)[C@H](CCCNC(=N)N)NC(=O)[C@H](C(C)C)NC1=O [AR-F] (HELM PEPTIDE1{R.F.C.V.Y.A.Y.V.R.V.R.G.V.L.V.R.Y.R.R.C.F}$PEPTIDE1,PEPTIDE1,3:R3-20:R3$$$V2.0; N-terminus and C-terminus assumed) | 1 µM | 1 µM | 1 µM | 2 µM | 1 µM | 2 µM | 2 µM | 2 µM | 4 µM | 2 µM | 2 µM | 4 µM | 1.8 µM | 9.3 µM
3 | CC(C)C[C@@H]1NC(=O)[C@H](C(C)C)NC(=O)CNC(=O)[C@H](CCCNC(=N)N)NC(=O)[C@H](C(C)C)NC(=O)[C@H](CCCNC(=N)N)NC(=O)[C@H](C(C)C)NC(=O)[C@H](CCCNC(=N)N)NC(=O)[C@H](Cc2ccc(O)cc2)NC(=O)[C@H](CCCNC(=N)N)NC(=O)[C@H](CCCNC(=N)N)NC(=O)[C@@H](NC(=O)[C@H](Cc2c[nH]c3ccccc23)NC(=O)[C@@H](N)CCCNC(=N)N)CSSC[C@@H](C(=O)N[C@@H](Cc2c[nH]c3ccccc23)C(=O)O)NC(=O)[C@H](C(C)C)NC(=O)[C@H](Cc2ccc(O)cc2)NC(=O)[C@H](C)NC(=O)[C@H](Cc2ccc(O)cc2)NC(=O)[C@H](C(C)C)NC1=O [ARin-s] (HELM PEPTIDE1{R.W.C.R.R.Y.R.V.R.V.R.G.V.L.V.Y.A.Y.V.C.W}$PEPTIDE1,PEPTIDE1,3:R3-20:R3$$$V2.0; N-terminus assumed) | 8 µM | 8 µM | 4 to 8 µM | 2 µM | 4 to 8 µM | 16 µM | >16 µM | 16 µM | >16 µM | >16 µM | 16 µM | >16 µM | ≥12.8 µM | 37.7 µM
4 | CC(C)C[C@H](NC(=O)[C@@H](NC(=O)CNC(=O)[C@H](CCCNC(=N)N)NC(=O)[C@@H](NC(=O)[C@H](CCCNC(=N)N)NC(=O)[C@@H](NC(=O)[C@H](Cc1ccc(O)cc1)NC(=O)[C@H](C)NC(=O)[C@H](Cc1ccc(O)cc1)NC(=O)[C@@H](NC(=O)[C@H](CSCC(N)=O)NC(=O)[C@H](Cc1c[nH]c2ccccc12)NC(=O)[C@@H](N)CCCNC(=N)N)C(C)C)C(C)C)C(C)C)C(C)C)C(=O)N[C@H](C(=O)N[C@@H](CCCNC(=N)N)C(=O)N[C@@H](Cc1ccc(O)cc1)C(=O)N[C@@H](CCCNC(=N)N)C(=O)N[C@@H](CCCNC(=N)N)C(=O)N[C@@H](CSCC(N)=O)C(=O)N[C@@H](Cc1c[nH]c2ccccc12)C(=O)O)C(C)C [ARlin] (H-RWC(Cam)VYAYVRVRGVLVRYRRC(Cam)W-OH; N-terminus assumed) | 2 µM | 2 µM | 1 to 2 µM | 2 µM | 2 µM | 2 µM | 4 µM | 2 µM | 8 to 16 µM | 4 to 8 µM | 4 µM | 8 µM | 3.1 µM | > 40 µM
